Series [1] concerns bovine nucleus pulposus cells. The series can be described thus: MTS cytotoxicity assay, bovine nucleus pulposus cells. Particulars: bovine disc cells, 24 hours incubation. Format: cell-based. The protocol:
(§1) Cytotoxicity testing was carried out on precursor monomers and proteoglycan analogues via the MTS assay using a commercial Kit (MTS assay Cell titre 96® AQueous One Solution Cell Proliferation Assay). Briefly, 5×10^3 cells per well were allowed to adhere to a 96 well plate for 24 hours. The substance under test was added and incubated with the cells for 24 hours before assessment of cell activity with MTS solution. Two cell types were used: (i) L929 mouse fibroblasts (European Collection of Cell Culture: ECACC No 85011425) which are typically used in cytotoxicity tests and (ii) bovine nucleus pulposus cells, prepared by enzymatic digestion of nucleus pulposus from bovine coccygeal discs.
(§2) The individual possible components of proteoglycan analogues were tested, including: NaAMPS, KSPA, acryloyl morpholine (ACMO), glycerol, ascorbic acid, Oxone (potassium oxypersulphate), PEG diacrylate and multifunctional macromer cross-linkers. The proteoglycan analogues are exemplified by those in Tables 1 and 2.
(Tetrazolium assays rely on reduction of a dye to a coloured formazan, in cell work by metabolically active cells.)

A further series deals with L929 mouse fibroblasts. The series can be described thus: MTS cytotoxicity assay, L929 cells. Type of series: cell-based. As to conditions: 24 hours incubation. As to the method:
as §1, §2

On to `O=C1O[C@H]([C@@H](O)CO)C(O)=C1O` [ascorbic acid], for which the “toxicity to cells (MTS assay)” value (in series [1]; with L929 mouse fibroblasts) was “not to be toxic” in each case.
For the molecule potassium oxypersulphate [Oxone], the “toxicity to cells (MTS assay)” value (in series [1]; with L929 mouse fibroblasts) was “not to be toxic” each time.

The values are drawn from US20110118379A1, “INTERVERTEBRAL DISC AND INTRAOCULAR LENS” (priority 2008, published 2011).
